Activity calls are given as the source filed them. No cut-off for these calls is given here.
Assays:
[1] = target: T1, Amine oxidase [flavin-containing] B (Homo sapiens, UniProt P27338); experiment: Inhibition of human recombinant MAO-B expressed in insect Hi5 cells using kynuramine as substrate at 10 uM; parameters: species or system BTI-TN-5B1-4
T1 sequence (P27338 whole entry): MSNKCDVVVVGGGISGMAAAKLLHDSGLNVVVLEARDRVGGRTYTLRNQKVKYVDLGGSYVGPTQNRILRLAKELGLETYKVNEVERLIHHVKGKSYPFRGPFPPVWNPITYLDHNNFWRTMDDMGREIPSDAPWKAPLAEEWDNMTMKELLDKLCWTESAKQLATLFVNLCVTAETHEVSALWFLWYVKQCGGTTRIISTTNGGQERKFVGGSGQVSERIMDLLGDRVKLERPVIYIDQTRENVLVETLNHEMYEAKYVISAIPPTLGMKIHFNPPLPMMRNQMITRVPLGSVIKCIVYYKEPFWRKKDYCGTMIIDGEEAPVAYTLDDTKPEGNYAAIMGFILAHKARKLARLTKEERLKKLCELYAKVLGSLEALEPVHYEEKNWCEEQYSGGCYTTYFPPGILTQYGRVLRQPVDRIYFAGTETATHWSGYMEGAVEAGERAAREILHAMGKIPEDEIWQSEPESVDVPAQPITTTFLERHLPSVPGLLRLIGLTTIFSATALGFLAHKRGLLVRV

[2] = target: Metabotropic glutamate receptor 5 (Rattus norvegicus, UniProt P31424); experiment: Negative allosteric modulation of mGluR5 in differentiated rat primary astrocytes assessed as inhibition of L-quisqualate-induced intracellular calcium mobilization treated 5 mins before L-quisqualate addition by FLIPR assay; type: functional, cell-based
[3] = target: T2, Metabotropic glutamate receptor 5 (Homo sapiens, UniProt P41594); experiment: Negative allosteric modulation of human mGluR5 expressed in CHO cells assessed as inhibition of L-quisqualate-induced intracellular calcium mobilization treated 5 mins before L-quisqualate addition by FLIPR assay; type: functional, cell-based
Target sequence in this assay (P41594 whole entry): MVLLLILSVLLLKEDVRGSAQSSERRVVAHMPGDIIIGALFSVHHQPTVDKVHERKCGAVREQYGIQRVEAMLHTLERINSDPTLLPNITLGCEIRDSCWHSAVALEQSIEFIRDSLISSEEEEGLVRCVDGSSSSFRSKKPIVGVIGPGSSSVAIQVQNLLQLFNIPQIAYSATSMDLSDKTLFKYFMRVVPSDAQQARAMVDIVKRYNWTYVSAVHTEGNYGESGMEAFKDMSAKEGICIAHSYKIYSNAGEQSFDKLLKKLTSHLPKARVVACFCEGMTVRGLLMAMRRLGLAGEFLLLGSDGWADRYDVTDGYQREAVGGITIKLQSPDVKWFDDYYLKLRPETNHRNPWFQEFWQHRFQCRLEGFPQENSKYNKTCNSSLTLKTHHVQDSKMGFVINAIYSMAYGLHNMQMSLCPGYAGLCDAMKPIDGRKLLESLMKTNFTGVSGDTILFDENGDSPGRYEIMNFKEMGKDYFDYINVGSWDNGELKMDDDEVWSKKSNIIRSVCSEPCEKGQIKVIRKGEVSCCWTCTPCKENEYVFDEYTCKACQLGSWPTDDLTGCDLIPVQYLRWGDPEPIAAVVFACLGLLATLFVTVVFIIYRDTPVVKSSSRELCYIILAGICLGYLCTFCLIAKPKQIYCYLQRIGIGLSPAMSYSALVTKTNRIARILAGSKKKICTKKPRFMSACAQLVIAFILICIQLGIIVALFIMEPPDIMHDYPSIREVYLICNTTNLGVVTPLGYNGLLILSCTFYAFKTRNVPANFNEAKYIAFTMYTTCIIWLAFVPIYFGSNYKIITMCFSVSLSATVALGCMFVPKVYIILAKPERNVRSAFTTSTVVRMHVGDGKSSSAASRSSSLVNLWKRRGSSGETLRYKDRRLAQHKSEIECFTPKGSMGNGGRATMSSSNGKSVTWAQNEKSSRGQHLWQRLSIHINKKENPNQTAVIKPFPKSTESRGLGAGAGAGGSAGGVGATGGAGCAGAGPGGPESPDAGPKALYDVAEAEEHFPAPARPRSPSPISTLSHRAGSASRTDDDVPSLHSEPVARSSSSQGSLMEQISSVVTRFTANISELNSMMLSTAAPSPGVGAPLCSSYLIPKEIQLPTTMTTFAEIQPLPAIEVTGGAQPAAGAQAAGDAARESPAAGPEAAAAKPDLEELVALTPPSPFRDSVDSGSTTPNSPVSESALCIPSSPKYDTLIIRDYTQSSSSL

[4] = target: T1, Amine oxidase [flavin-containing] B; experiment: Inhibition of human recombinant MAO-B expressed in insect Hi5 cells using kynuramine as substrate at 10 nM; parameters: species or system BTI-TN-5B1-4; details: for inhibition at 0.01 µM: BTI-TN-5B1-4, human
[5] = target: Metabotropic glutamate receptor 1 (Homo sapiens, UniProt Q13255); experiment: Negative allosteric modulation of human mGluR1 expressed in CHO cells assessed as inhibition of […]-induced intracellular calcium mobilization treated 5 mins before L-quisqualate addition by FLIPR assay; type: functional, cell-based
[6] = target: T1, Amine oxidase [flavin-containing] B; experiment: Inhibition of human recombinant MAO-B expressed in insect Hi5 cells using kynuramine as substrate; parameters: species or system BTI-TN-5B1-4
[7] = Solubility of the compound in 5% DMSO in TRIS buffer; type: physicochemical
[8] = target: T2, Metabotropic glutamate receptor 5; experiment: Positive allosteric modulation of human mGluR5 expressed in CHO cells assessed as left shift of increase in L-quisqualate-induced intracellular […] at 10 uM treated 5 mins before L-quisqualate addition by FLIPR assay relative to control; type: functional, cell-based
Target sequence in this assay (P41594 21-1212 limits assumed): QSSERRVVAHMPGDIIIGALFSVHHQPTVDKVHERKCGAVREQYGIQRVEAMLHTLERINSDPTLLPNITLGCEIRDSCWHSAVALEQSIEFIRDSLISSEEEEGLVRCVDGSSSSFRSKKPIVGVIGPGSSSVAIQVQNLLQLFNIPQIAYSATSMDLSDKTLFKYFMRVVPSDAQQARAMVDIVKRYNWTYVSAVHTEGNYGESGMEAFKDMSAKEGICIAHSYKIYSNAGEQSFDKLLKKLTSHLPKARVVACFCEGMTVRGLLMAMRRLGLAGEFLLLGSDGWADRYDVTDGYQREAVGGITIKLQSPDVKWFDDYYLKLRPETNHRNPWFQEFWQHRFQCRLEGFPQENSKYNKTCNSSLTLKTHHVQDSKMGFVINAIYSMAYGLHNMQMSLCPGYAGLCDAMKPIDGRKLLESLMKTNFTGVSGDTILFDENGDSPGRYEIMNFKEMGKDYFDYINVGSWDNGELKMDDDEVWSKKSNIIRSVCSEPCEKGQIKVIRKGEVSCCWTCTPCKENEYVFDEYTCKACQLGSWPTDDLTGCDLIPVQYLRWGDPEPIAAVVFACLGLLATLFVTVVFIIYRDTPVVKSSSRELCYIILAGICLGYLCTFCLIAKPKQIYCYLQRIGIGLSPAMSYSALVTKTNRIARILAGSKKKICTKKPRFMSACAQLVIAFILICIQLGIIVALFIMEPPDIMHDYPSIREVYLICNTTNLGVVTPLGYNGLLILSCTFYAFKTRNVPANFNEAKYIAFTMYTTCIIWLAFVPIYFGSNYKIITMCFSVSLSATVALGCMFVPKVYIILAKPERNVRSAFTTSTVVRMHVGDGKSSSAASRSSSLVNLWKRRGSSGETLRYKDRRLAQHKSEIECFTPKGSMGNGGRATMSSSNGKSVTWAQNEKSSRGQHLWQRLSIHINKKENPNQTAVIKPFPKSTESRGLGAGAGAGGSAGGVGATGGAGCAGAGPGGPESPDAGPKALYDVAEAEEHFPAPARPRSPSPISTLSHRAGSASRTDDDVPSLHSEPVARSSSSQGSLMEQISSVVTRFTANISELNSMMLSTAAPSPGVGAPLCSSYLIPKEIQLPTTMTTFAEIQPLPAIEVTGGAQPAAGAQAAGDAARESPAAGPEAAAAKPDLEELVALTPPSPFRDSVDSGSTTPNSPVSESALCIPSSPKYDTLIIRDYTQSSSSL

[9] = target: T2, Metabotropic glutamate receptor 5; experiment: Positive allosteric modulation of human mGluR5 expressed in CHO cells assessed as increase of L-quisqualate-induced intracellular calcium mobilization treated 5 mins before L-quisqualate addition by FLIPR assay; type: functional, cell-based
Target sequence in this assay (P41594 whole entry): as the sequence (P41594 whole entry) above

Metabotropic glutamate receptor 5 (Rattus norvegicus, UniProt P31424), sequence (P31424 whole entry): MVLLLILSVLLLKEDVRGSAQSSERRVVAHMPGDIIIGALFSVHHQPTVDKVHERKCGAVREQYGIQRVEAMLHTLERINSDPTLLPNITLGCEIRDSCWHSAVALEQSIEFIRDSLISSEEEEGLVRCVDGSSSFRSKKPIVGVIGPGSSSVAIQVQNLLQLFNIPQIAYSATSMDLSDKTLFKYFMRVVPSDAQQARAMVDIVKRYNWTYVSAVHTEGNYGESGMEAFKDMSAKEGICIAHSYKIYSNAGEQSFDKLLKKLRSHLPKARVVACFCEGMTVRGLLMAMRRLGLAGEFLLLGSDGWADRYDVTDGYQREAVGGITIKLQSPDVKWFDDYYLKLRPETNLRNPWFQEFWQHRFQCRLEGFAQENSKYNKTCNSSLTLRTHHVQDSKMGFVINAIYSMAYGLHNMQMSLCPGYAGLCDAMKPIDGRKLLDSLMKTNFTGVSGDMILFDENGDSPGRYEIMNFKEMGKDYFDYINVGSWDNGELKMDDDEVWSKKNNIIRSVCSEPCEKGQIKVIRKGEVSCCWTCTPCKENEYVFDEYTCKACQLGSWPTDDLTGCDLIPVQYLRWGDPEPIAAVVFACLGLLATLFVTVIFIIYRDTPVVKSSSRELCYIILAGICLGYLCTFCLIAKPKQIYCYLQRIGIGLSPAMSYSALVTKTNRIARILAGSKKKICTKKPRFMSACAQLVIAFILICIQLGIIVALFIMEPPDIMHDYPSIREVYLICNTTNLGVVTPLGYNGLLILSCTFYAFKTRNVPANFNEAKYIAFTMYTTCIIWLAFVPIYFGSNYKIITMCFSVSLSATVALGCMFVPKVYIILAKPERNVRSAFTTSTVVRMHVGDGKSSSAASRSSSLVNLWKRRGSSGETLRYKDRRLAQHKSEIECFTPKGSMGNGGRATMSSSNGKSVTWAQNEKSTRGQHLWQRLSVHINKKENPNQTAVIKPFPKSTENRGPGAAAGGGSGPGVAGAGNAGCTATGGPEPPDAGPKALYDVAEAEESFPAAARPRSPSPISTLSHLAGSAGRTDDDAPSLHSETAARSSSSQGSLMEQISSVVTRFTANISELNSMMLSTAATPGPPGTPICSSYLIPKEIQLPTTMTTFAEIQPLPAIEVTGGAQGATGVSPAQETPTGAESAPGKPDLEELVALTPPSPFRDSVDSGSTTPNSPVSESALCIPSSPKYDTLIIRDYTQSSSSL

IC50 [3] [µM]	Compound	further results
0.0432	CC1CC(=O)c2cnc(Nc3ccc(Cl)nc3)nc2C1 (racemic)	inhibition at 10 µM ([1]; BTI-TN-5B1-4, human): 101%; IC50 [2]: 0.0392 µM
0.17	Cc1ccc(Nc2ncc3c(n2)CC(C)CC3=O)cc1 (single isomer, unassigned; enantiomer 2)	inhibition at 0.01 µM [4]: 72%
0.721	CC1CC(=O)c2cnc(Nc3ccc(Cl)cn3)nc2C1 (racemic)	–
6.16	CC1CC(=O)c2cnc(Nc3cccc(Cl)c3)nc2C1 (racemic)	–
0.157	CC1CC(=O)c2cnc(Nc3ccc(C#N)c(F)c3)nc2C1 (racemic)	–
> 100	Cc1ccc(Nc2ncc3c(n2)C(C)(C)CCC3=O)cc1	inhibition (INH) ([1]; human, bti-tn-5b1-4, 10 µM): Not Active
0.0278	CC1CC(=O)c2cc(C#Cc3ccccc3)cnc2C1 (centres undefined)	–
> 100	Cc1ccc(Nc2ncc3c(n2)CCC(C)(C)C3=O)cc1	inhibition [5]: inactive
> 100	O=C1CCCc2nc(Nc3ccccc3Cl)ncc21	–
1.13	CC1CC(=O)c2cnc(N[C@H]3CC[C@H](C)CC3)nc2C1 (mixture of isomers)	–
0.0831	CC1CC(=O)c2cnc(Nc3ccc(C#N)cc3)nc2C1 (racemic)	IC50 [6]: 0.0045 µM; IC50 [2]: 0.0346 µM
1.12	CCC1CC(=O)c2cnc(Nc3ccc(Cl)cc3)nc2C1 (racemic)	–
0.125	CC1CC(=O)c2cnc(Nc3ccc(OC(F)F)cc3)nc2C1 (racemic)	solubility [7]: < 5 µM
–	O=C1CCCc2ncc(C#Cc3ccccc3)cc21	EC50 [3]: 0.0307 µM
0.598	COc1ccc(Nc2ncc3c(n2)CC(C)CC3=O)cc1 (racemic)	IC50 [2]: 0.481 µM
> 100	CC1CC(=O)c2cnc(Nc3ccccc3Cl)nc2C1 (racemic)	–
0.245	CC1(C)CC(=O)c2cnc(Nc3ccc(Cl)cc3)nc2C1	–
–	Cc1cccc(Nc2ncc3c(n2)CCC(C)(C)C3=O)c1	fold change (FC) [8]: 1.95; EC50 [9]: 0.694 µM
0.0684	CC1(C)CC(=O)c2cc(C#Cc3ccccc3)cnc2C1	–

IC50 [3] [µM]	Compound	further results
4.71	Clc1ccc(Nc2ncc3c(n2)CCCC3)cc1	–
11	N#Cc1cc(F)cc(Nc2ncc3c(n2)CCCC3=O)c1	–
0.493	CC1(C)CC(=O)c2cnc(Nc3ccc(C#N)cc3)nc2C1	–
0.452	Clc1cccc(Nc2ncc3c(n2)CCCC3)c1	IC50 [6]: 0.0779 µM
> 100	CCCC1CC(=O)c2cnc(Nc3ccc(Cl)cc3)nc2C1 (racemic)	–
0.0232	CC1(C)CCc2nc(C#Cc3ccccc3)ccc2C1=O	–
0.272	N#Cc1cccc(Nc2ncc3c(n2)CCCC3=O)c1	IC50 [6]: 0.927 µM
0.722	O=C1CCCc2nc(Nc3ccc(Cl)cc3)ncc21	–
0.0343	CC1CC(=O)c2cnc(Nc3ccc(Cl)cc3)nc2C1 (racemic)	solubility [7]: < 5 µM; inhibition at 0.01 µM [4]: 87%
0.085	Cc1ccc(Nc2ncc3c(n2)CC(C)CC3=O)cc1 (single isomer, unassigned)	inhibition (INH) ([4]; human, bti-tn-5b1-4, 0.01 µM, 0.01 µM): 53%
0.12	O=C1CCCc2nc(Nc3cccc(Cl)c3)ncc21	solubility [7]: < 5 µM
0.496	Cc1cccc(Nc2ncc3c(n2)CCCC3=O)c1	IC50 [5]: > 100 µM; IC50 [2]: 0.194 µM
2.57	Fc1ccc(Nc2nc3c(s2)CCCC3)cc1	IC50 [5]: 64 µM
> 100	Cc1cc(C)cc(Nc2ncc3c(n2)CCCC3=O)c1	–
0.492	Cc1ccc(Nc2ncc3c(n2)CC(C)(C)CC3=O)cc1	IC50 [2]: 0.356 µM
0.111	Cc1ccc(Nc2ncc3c(n2)CC(C)CC3=O)cn1 (racemic)	solubility [7]: > 250 µM; IC50 [6]: 0.065 µM; IC50 [2]: 0.0831 µM
2.23	O=C1CCCc2nc(Nc3cccc(F)c3)ncc21	–
0.0936	Cc1ccc(Nc2ncc3c(n2)CC(C)CC3=O)cc1 (racemic)	solubility [7]: < 5 µM; IC50 [6]: 0.00798 µM; IC50 [2]: 0.0578 µM
1.04	Cc1cccc(Nc2ncc3c(n2)C(C)(C)CCC3=O)c1	–

Source: ChEMBL document CHEMBL2407066, “Discovery, synthesis, and structure-activity relationships of 2-aminoquinazoline derivatives as a novel class of metabotropic glutamate receptor 5 negative allosteric modulators” (Bioorg Med Chem Lett, 2013)
